Laboratory results from BindingDB's records for PubMed 9067310 (Institut De Recherches Servier, 1997).

Key:
[1] = target: D(2) dopamine receptor (Homo sapiens, UniProt P14416)
[2] = target: T1, 5-hydroxytryptamine receptor 1A (Homo sapiens, UniProt P08908)
T1 sequence (P08908 whole entry): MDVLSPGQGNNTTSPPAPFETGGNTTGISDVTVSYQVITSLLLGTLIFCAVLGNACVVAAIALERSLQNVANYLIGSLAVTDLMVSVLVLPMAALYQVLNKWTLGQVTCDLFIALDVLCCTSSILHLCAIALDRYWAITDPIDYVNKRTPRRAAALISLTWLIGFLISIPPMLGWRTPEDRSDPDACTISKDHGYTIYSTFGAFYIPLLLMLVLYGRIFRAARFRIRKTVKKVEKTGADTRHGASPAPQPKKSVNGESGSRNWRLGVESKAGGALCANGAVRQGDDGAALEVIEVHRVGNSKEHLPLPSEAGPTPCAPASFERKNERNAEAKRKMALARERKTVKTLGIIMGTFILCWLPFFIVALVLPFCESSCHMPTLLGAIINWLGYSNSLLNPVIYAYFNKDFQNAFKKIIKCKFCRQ

Sequence of D(2) dopamine receptor (P14416 whole entry): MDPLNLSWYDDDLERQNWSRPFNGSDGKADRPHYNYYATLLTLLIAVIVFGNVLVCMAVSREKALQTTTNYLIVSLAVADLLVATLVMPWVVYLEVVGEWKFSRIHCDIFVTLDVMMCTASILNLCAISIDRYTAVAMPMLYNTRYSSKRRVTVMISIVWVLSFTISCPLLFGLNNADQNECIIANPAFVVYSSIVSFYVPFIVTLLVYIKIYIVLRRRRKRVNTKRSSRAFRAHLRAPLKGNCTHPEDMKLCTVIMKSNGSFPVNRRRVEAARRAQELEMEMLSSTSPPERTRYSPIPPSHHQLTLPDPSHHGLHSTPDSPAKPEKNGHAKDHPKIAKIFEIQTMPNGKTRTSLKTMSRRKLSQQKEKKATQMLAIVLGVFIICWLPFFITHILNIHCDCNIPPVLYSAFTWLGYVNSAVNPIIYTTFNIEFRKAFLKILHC

SMILES	Ki [1] [µM]	Ki [2] [nM]
CC(C)(C)NCC(O)COc1cccc2c1SCCC2 (single isomer, unassigned; (-)) [TERTATOLOL(-)]	> 10	6.7
CCCN(CCC)C1CCc2ccc(O)cc2C1 (stereo not drawn)		265
